The test system of assay [1] is BaF3. The assay is described as follows: Antiproliferative activity against mouse BaF3 cells harbouring ETV6-NTRK3 fusion protein incubated for 3 days by CCK8 method. The following applies: BaF3, 72 h.
For assay [2], the system named is BaF3. The assay is described as follows: Antiproliferative activity against mouse BaF3 cells harbouring CD74-TRKA G6678 mutant incubated for 3 days by CCK8 method. The conditions noted are these: BaF3, 72 h. (Formazan colour is commonly taken as a measure of viable cells.)
For assay [3], the system named is BaF3. The assay is described as follows: Antiproliferative activity against mouse BaF3 cells harbouring ETV6-TRKC V601M mutant incubated for 3 days by CCK8 method. The following applies: BaF3, 72 h.
Assay [4] relates to BaF3. The assay is described as follows: cells. The following applies: Mus musculus, BaF3, 72 h.
The subject of assay [5] is BaF3. Put plainly: Antiproliferative activity against mouse BaF3 cells harbouring CD74-NTRK1 fusion protein incubated for 3 days by CCK8 method. The conditions noted are these: BaF3, 72 h.
Assay [6] relates to BaF3. Put plainly: cells. The conditions noted are these: Mus musculus, BaF3, 72 h. The source holds these as a separate data set.
Assay [7] deals with BaF3. The assay is described as follows: Antiproliferative activity against mouse BaF3 cells incubated for 3 days by CCK8 method. The conditions noted are these: BaF3, 72 h.
Assay [8] concerns BaF3. Put plainly: Antiproliferative activity against mouse BaF3 cells harbouring ETV6-TRKC G696A mutant incubated for 3 days by CCK8 method. The conditions noted are these: BaF3, 72 h.
In assay [9] the test system is BaF3. Put plainly: Antiproliferative activity against mouse BaF3 cells harbouring ETV6-TRKC G623E mutant incubated for 3 days by CCK8 method. The conditions noted are these: BaF3, 72 h.
Assay [10] concerns BaF3. The assay is described as follows: Antiproliferative activity against mouse BaF3 cells harbouring TRKA-F589L fusion protein incubated for 3 days by CCK8 method. The conditions noted are these: BaF3, 72 h.
Assay [11] concerns BaF3. The assay is described as follows: Antiproliferative activity against mouse BaF3 cells harbouring wild type ETV6-TRKB incubated for 3 days by CCK8 method. The conditions noted are these: BaF3, 72 h.
The test system of assay [12] is BaF3. Put plainly: Antiproliferative activity against mouse BaF3 cells harbouring ETV6-TRKB G709C mutant incubated for 3 days by CCK8 method. The conditions noted are these: BaF3, 72 h.
Assay [13] concerns BaF3. Put plainly: Antiproliferative activity against mouse BaF3 cells harbouring ETV6-TRKB V617M mutant incubated for 3 days by CCK8 method. The conditions noted are these: BaF3, 72 h.
Assay [14] concerns BaF3. The assay is described as follows: cells. The following applies: Mus musculus, BaF3, 72 h. The source holds these as a separate data set.
The subject of assay [15] is BaF3. Put plainly: Antiproliferative activity against mouse BaF3 cells harbouring CD74-TRKA G667A mutant incubated for 3 days by CCK8 method. The following applies: BaF3, 72 h.
The subject of assay [16] is BaF3. The assay is described as follows: Antiproliferative activity against mouse BaF3 cells harbouring ETV6-TRKB F633L mutant incubated for 3 days by CCK8 method. The conditions noted are these: BaF3, 72 h.
The test system of assay [17] is BaF3. The assay is described as follows: Antiproliferative activity against mouse BaF3 cells harbouring CD74-[…] mutant fusion protein incubated for 3 days by CCK8 method. In kind it is functional, cell-based. The conditions noted are these: BaF3, 72 h.
Assay [18] relates to BaF3. Put plainly: Antiproliferative activity against mouse BaF3 cells harbouring ETV6-TRKC F617L mutant incubated for 3 days by CCK8 method. The conditions noted are these: BaF3, 72 h.
Assay [19] concerns BaF3. Put plainly: Antiproliferative activity against mouse BaF3 cells harbouring ETV6-TRKC G6968 mutant incubated for 3 days by CCK8 method. The conditions noted are these: BaF3, 72 h.
Assay [20] relates to BaF3. The assay is described as follows: Antiproliferative activity against mouse BaF3 cells harbouring ETV6-TRKC G623R mutant incubated for 3 days by CCK8 method. The conditions noted are these: BaF3, 72 h.
For assay [21], the system named is BaF3. The assay is described as follows: Antiproliferative activity against mouse BaF3 cells harbouring ETV6-TRKC G696C mutant incubated for 3 days by CCK8 method. The conditions noted are these: BaF3, 72 h.
The test system of assay [22] is BaF3. Put plainly: Antiproliferative activity against mouse BaF3 cells harbouring CD74-TRKA V573M mutant incubated for 3 days by CCK8 method. The following applies: BaF3, 72 h.
Assay [23] relates to BaF3. Put plainly: Antiproliferative activity against mouse BaF3 cells harbouring ETV6-TRKB G639R mutant incubated for 3 days by CCK8 method. The following applies: BaF3, 72 h.

In general, IC50 refers to the concentration that gives 50% inhibition.

Take `C[C@H]1CNC(=O)c2cnn3ccc(nc23)N[C@H](C)c2cc(F)ccc2O1` [REPOTRECTINIB]: the IC50 in the assay with BaF3 [1] is 1.9 nM; in the assay on BaF3 [2] it was 8.12 nM; in the assay with BaF3 [3], 23.1 nM; in the assay on BaF3 [4] it was 78.3 nM; in the assay with BaF3 [5], 1.39 nM; in the assay with BaF3 [6], 159 nM. The IC50 with BaF3 [7] was found to be 892 nM; with BaF3 [8] it was 1.14 nM; in the assay with BaF3 [9], 5.4 nM; in the assay with BaF3 [10] it was 1.61 nM; in the assay on BaF3 [11], 0.66 nM; with BaF3 [12], 9.44 nM. For the same compound, the IC50 amounted to 10.8 nM in the assay on BaF3 [13]; 15.7 nM in the assay on BaF3 [14]; 0.88 nM in the assay with BaF3 [15]; 2.15 nM with BaF3 [16]; 3.32 nM in the assay on BaF3 [17]; 0.98 nM in the assay on BaF3 [18]. Besides, the IC50 with BaF3 [19] was 4.59 nM; with BaF3 [20], 5.75 nM; in the assay with BaF3 [21] it was 17 nM; in the assay with BaF3 [22], 12.3 nM; in the assay on BaF3 [23], 19.3 nM.

These data come from ChEMBL document CHEMBL5365464, “Structure-Based Optimization of the Third Generation Type II Macrocycle TRK Inhibitors with Improved Activity against Solvent-Front, xDFG, and Gatekeeper Mutations” (J Med Chem, 2023).
